Reference: patent US7888379B2, “Thiazole derivatives and use thereof” (Merck Serono SA, priority 2005, dated 2011)

Key:
Akt/PKB phosphorylation = experiment: Cell based ELISA to monitor PI3K inhibition: Akt/PKB phosphorylation in Raw 264-7 macrophages after Complement 5a stimulation; conditions: Mus musculus, RAW264.7, phospho Serine 473 Akt, read-out: Cell Assay (P-Akt, Elisa) IC50
Description: b) Cell Based ELISA to Monitor PI3K Inhibition:
The efficacy of compounds of the invention in inhibiting the PI3K induced Akt/PKB phosphorylation may be tested in the following cell based assay.
Measurement of Akt/PKB phosphorylation in macrophages after stimulation with Complement 5a: Raw 264: Raw 264-7 macrophages (cultured in DMEM-F12 medium containing 10% Fetal Calf serum and antibiotics) are plated at 20'000 cells/well in a 96 MTP 24 h before cell stimulation. Prior to the stimulation with […] of Complement 5a during 5 minutes, Cells are serum starved for 2 h, and pretreated with inhibitors for 20 minutes. After stimulation cells are fixed in 4% formaldehyde for 20 minutes and washed 3 times in PBS containing 1% Triton X-100 (PBS/Triton). […] Next, phosphorylated Akt/PKB is detected by an overnight incubation at 4° C. with primary antibody (anti phospho Serine 473 Akt IHC, Cell Signaling) diluted 800-fold in PBS/Triton, containing 5% bovine serum albumin (BSA). After 3 washes in PBS/Triton, cells are incubated for 60 minutes with a peroxidase conjugated goat-anti-rabbit secondary antibody (1/400 dilution in PBS/Triton, containing 5% BSA), washed 3 times in PBS/Triton, and 2 times in PBS and further incubated in 100 μl of luminescent substrate reagent solution (Pierce) for 2 minutes, followed by the reading (1 s/well). […]

Neutrophils recruitment = experiment: Thioglycollate-induced peritoneal cavity cell recruitment model; format: in vivo; conditions: at 10 mg/kg after 4 hours, oral, female C3H mice, thioglycollate i.p.
Description: Thioglycollate-induced Peritoneal Cavity Cell Recruitment Model
The in vivo efficacy of compounds of the invention in inhibiting the migration of leukocytes upon intraperitoneal challenge of thioglycollate may be tested with the following assay.
8-10 weeks old female C3H mice are fasted during 18 hours. 15 minutes prior the intraperitoneal injection of thioglycollate (1.5%, 40 ml/kg), the mice are treated orally with Thiazoles of Formula (I). Control mice receive CMC/Tween as vehicle (10 ml/kg). The mice are then sacrificed by CO2 inhalation and the peritoneal cavity is washed two times with 5 ml of ice-cold PBS/1 mM EDTA. The ravages are done 4 hours or 48 hours after thioglycollate challenge to evaluate neutrophils or macrophages recruitment, respectively. The white blood cells (neutrophils, lymphocytes or macrophages) are counted using a Beckman Coulter® A°T 5diff™.
Dexamethasone is used as reference drug.

[1] = biological target: Human recombinant GST-PI3Kγ (Homo sapiens, UniProt P48736); experiment: High Throughput PI3K Lipid Kinase Assay (SPA, neomycin-coated beads); format: biochemical
Sequence of Human recombinant GST-PI3Kγ (P48736 whole entry): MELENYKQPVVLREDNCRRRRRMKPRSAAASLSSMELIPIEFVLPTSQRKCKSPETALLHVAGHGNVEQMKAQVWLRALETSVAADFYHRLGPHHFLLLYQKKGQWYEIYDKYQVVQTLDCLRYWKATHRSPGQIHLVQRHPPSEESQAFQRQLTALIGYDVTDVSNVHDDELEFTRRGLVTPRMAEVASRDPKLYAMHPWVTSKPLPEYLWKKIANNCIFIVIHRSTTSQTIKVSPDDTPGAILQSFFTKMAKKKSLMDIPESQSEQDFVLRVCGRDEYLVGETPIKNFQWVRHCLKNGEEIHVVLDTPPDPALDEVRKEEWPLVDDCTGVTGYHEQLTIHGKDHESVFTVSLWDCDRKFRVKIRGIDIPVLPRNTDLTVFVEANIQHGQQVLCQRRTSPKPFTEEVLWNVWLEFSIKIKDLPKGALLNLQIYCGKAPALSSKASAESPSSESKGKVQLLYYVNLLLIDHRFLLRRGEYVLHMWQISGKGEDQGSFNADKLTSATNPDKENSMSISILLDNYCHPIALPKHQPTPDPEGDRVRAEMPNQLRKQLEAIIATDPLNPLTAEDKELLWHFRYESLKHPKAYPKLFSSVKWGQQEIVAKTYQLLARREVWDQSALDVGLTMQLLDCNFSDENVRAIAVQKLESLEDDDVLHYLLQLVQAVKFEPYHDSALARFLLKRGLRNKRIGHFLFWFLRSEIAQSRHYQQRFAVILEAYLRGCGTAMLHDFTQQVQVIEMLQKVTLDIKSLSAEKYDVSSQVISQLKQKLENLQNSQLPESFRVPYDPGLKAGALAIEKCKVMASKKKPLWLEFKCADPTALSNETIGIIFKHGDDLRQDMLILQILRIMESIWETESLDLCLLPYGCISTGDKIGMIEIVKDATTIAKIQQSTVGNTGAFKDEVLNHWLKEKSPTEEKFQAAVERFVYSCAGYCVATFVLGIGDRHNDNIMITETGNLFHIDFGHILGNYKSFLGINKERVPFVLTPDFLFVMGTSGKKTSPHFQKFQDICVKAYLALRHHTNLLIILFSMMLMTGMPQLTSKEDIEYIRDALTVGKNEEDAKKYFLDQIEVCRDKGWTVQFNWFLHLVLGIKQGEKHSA
Text: a) High Throughput PI3K Lipid Kinase Assay (Binding Assay):
The efficacy of compounds of the invention in inhibiting the PI3K induced-lipid phosphorylation may be tested in the following binding assay
The assay combines the scintillation proximity assay technology (SPA, Amersham) with the capacity of neomycin (a polycationic antibiotic) to bind phospholipids with high affinity and specificity. The Scintillation Proximity Assay is based on the properties of weakly emitting isotopes (such as ^3H, ^125I, ^33P). Coating SPA beads with neomycin allows the detection of phosphorylated lipid substrates after incubation with recombinant PI3K and radioactive ATP in the same well, by capturing the radioactive phospholipids to the SPA beads through their specific binding to neomycin.
To a 384 wells MTP containing 5 μl of the test compound of Formula (I) (solubilized in 6% DMSO; to yield a concentration of 100, 30, 10, 3, 1, 0.3, 0.1, 0.03, 0.01, 01 μM of the test compound), the following assay components are added. 1) 5 μl (58 ng) of Human recombinant GST-PI3Kγ (in Hepes 40 mM, pH 7.4, DTT 1 mM and ethylenglycol 5%) 2) 10 μl of lipid micelles and 3) 10 μl of Kinase buffer ([^33P]γ-ATP 45 μM/60 nCi, MgCl2 30 mM, DTT 1 mM, β-Glycerophosphate 1 mM, Na3VO4 100 μM, Na Cholate 0.3%, in Hepes 40 mM, pH 7.4). After incubation at room temperature for 180 minutes, with gentle agitation, the reaction is stopped by addition of 60 μl of a solution containing 100 μg of neomycin-coated PVT SPA beads in PBS containing ATP 10 mM and EDTA 5 mM. The assay is further incubated at room temperature for 60 minutes with gentle agitation to allow binding of phospholipids to neomycin-SPA beads. After precipitation of the neomycin-coated PVT SPA beads for 5 minutes at 1500×g, radioactive PtdIns(3)P is quantified by scintillation counting in a Wallac MicroBeta™ plate counter.
The values indicated in Table I below refer to the IC50 (nM) with respect to PI3Kγ, i.e. the amount necessary to achieve 50% inhibition of said target. Said values show a considerable inhibitory potency of thiazole compounds with regard to PI3Kγ.

Row | Structure (SMILES) | IC50 (Akt/PKB phosphorylation) [nM] | IC50 [1] [nM] | % of inhibition of Neutrophils recruitment (Neutrophils recruitment) [%]
1 | C=CCNS(=O)(=O)c1ccc(-c2sc(NC(C)=O)nc2C)s1 [Example 12, N-(5-[5-{(allylamino)sulfonyl]-2-thienyl}-4-methyl-1,3-thiazol-2-yl) acetamide] | 322 | – | 38
2 | CC(=O)Nc1nc(C)c(-c2ccc(C(=O)N3CCCC(O)C3)s2)s1 (stereo not drawn) [Example 8, N-(5-{5-[(3-hydroxypiperidin-1-yl)carbonyl]-2-thienyl}-4-methyl-1,3-thiazol-2-yl)acetamide] | – | 1100 | –

Second part, led by results:

Row | IC50 (Akt/PKB phosphorylation) [nM] | IC50 [1] [nM] | Structure (SMILES) | % of inhibition of Neutrophils recruitment (Neutrophils recruitment) [%]
3 | – | 219 | CC(=O)Nc1nc(C)c(-c2ccc(CO)s2)s1 [Example 3, N-[5-[5-(hydroxymethyl)-2-thienyl]-4-methyl-1,3-thiazol-2-yl]acetamide] | –
4 | – | 215 | CC(=O)Nc1nc(C)c(-c2ccc(C=O)s2)s1 [Example 1, N-[5-(5-formyl-2-thienyl)-4-methyl-1,3-thiazol-2-yl]acetamide] | –
5 | – | 249 | CC(=O)Nc1nc(C)c(-c2ccc(C(=O)N3CCOCC3)s2)s1 [Example 5] | –
